Data: the supplement of paper PMC7840683

Tested on: HepaRG
Test: LDH release cytotoxicity, % of total lysis control; higher = more cytotoxic
Conditions: 48 h
Procedure, shortened: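 Eight-point half-log series of test chemicals, the highest at 100 µM, were given in duplicate for 48 h to single-lot HepaRG cells on collagen I-coated 96-well plates in serum-free induction medium with 0.5% DMSO. A Tecan Safire read resorufin fluorescence from CytoTox-ONE as a measure of LDH in 50 µL spent medium, with 0.1% Triton X in total lysis wells. Percent cytotoxicity was normalized to on-plate vehicle and total lysis controls and averaged over the duplicates.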

CCC(=C(c1ccc(O)cc1)c1ccc(OCCN(C)C)cc1)c1ccccc1 [4-Hydroxytamoxifen]
Conditions	LDH release cytotoxicity [%]
0.031623 µM	-1.94
0.1 µM	-3.22
0.316228 µM	-3.61
1 µM	-3.76
3.16228 µM	-3.7
10 µM	-3.42
31.6228 µM	-3.18
100 µM	-0.0951

N=C(N)c1ccc(OCCCCCOc2ccc(C(=N)N)cc2)cc1 [Pentamidine isethionate]
Conditions	LDH release cytotoxicity [%]
0.0276699 µM	-1.83
0.0875 µM	-2.81
0.276699 µM	-2.72
0.875 µM	-3.54
2.76699 µM	-2.52
8.75 µM	19
27.6699 µM	68.9
87.5 µM	73.7

O=C(O)C(Cl)(Cl)Cl [Trichloroacetic acid]
Conditions	LDH release cytotoxicity [%]
0.03162 µM	-0.739
0.1 µM	-2.11
0.3162278 µM	-2.765
1 µM	-2.27
3.16228 µM	-2.74
10 µM	-2.07
31.6228 µM	-1.13
100 µM	0.84

CCCCCCOCCO [2-Hexyloxyethanol]
Conditions	LDH release cytotoxicity [%]
0.03162 µM	-0.677
0.1 µM	-1.05
0.3162278 µM	-0.605
1 µM	-0.402
3.16228 µM	-1.19
10 µM	0.932
31.6228 µM	0.572
100 µM	47.6

O=C(NC1CN2CCC1CC2)c1ccc2c(c1)OCCO2 (stereo not drawn)
Conditions	LDH release cytotoxicity [%]
0.03162 µM	-2.41
0.1 µM	-1.45
0.3162278 µM	-1.86
1 µM	-1.29
3.16228 µM	-1.81
10 µM	-1.38
31.6228 µM	-1.38
100 µM	0.204

COC=C(C(=O)OC)c1ccccc1Oc1cc(Oc2ccccc2C#N)ncn1 [Azoxystrobin]
Conditions	LDH release cytotoxicity [%]
0.03162 µM	-1.32
0.1 µM	-1.84
0.3162278 µM	-2.03
1 µM	-2.35
3.16228 µM	-2.2
10 µM	-1.39
31.6228 µM	-1.83
100 µM	18.63

CN(C)C(=O)Cl [Dimethylcarbamoyl chloride]
Conditions	LDH release cytotoxicity [%]
0.03162 µM	-1.3
0.1 µM	-0.716
0.3162278 µM	-0.579
1 µM	-0.789
3.16228 µM	-0.264
10 µM	-0.4
31.6228 µM	-0.611
100 µM	0.647

CC(C)N(Cc1ccccc1)C(=O)C(C)(C)C [Butam]
Conditions	LDH release cytotoxicity [%]
0.03162 µM	-0.681
0.1 µM	-1.54
0.3162278 µM	-1.1
1 µM	-0.413
3.16228 µM	-0.189
10 µM	0.285
31.6228 µM	0.032
100 µM	0.934

COCCOCC(CC1(C(=O)NC2CCC(C(=O)O)CC2)CCCC1)C(=O)Oc1ccc2c(c1)CCC2 (stereo not drawn) [Candoxatril]
Conditions	LDH release cytotoxicity [%]
0.03162 µM	-0.831
0.1 µM	-1.91
0.3162278 µM	-0.642
1 µM	-1.61
3.16228 µM	-1.03
10 µM	-0.79
31.6228 µM	-0.798
100 µM	0.54

CC12CCC3c4ccc(O)cc4CCC3C1CCC2=O (stereo not drawn) [Estrone]
Conditions	LDH release cytotoxicity [%]
0.03162 µM	-1.21
0.1 µM	-1.61
0.3162278 µM	-1.15
1 µM	-2.36
3.16228 µM	-2.37
10 µM	-2.52
31.6228 µM	-1.9
100 µM	0.127

COc1cc2c(c(OC)c1OC)-c1ccc(OC)c(=O)cc1C(NC(C)=O)CC2 (stereo not drawn) [Colchicine]
Conditions	LDH release cytotoxicity [%]
0.031623 µM	2.9
0.1 µM	7.47
0.316228 µM	10.8
1 µM	10.1
3.16228 µM	11.5
10 µM	10.1
31.6228 µM	7.72
100 µM	5.064

CCCCCCCC(=O)O [Octanoic acid]
Conditions	LDH release cytotoxicity [%]
0.03162 µM	-1.17
0.1 µM	-1.02
0.3162278 µM	-0.609
1 µM	-0.537
3.16228 µM	-0.391
10 µM	-0.933
31.6228 µM	-0.626
100 µM	0.799

CCCOc1nn(C(=O)NS(=O)(=O)c2ccccc2C(=O)OC)c(=O)n1C [Propoxycarbazone-sodium]
Conditions	LDH release cytotoxicity [%]
0.03162 µM	0.284
0.1 µM	0.427
0.3162278 µM	-0.758
1 µM	-0.962
3.16228 µM	-0.435
10 µM	-0.39
31.6228 µM	-0.185
100 µM	0.864

COc1ccc(C(=O)Nc2nc3ccccc3c(NCc3ccccc3)c2C#N)cc1
Conditions	LDH release cytotoxicity [%]
0.03162 µM	-1.06
0.1 µM	-0.452
0.3162278 µM	-0.037
1 µM	0.715
3.16228 µM	2.34
10 µM	2.97
31.6228 µM	4.87
100 µM	8.05

Nc1ccc2c(c1)C(=O)c1ccccc1C2=O [2-Aminoanthraquinone]
Conditions	LDH release cytotoxicity [%]
0.03162 µM	-1.78
0.1 µM	-1.65
0.3162278 µM	-1.65
1 µM	-1.44
3.16228 µM	-1.62
10 µM	-1.05
31.6228 µM	-1.21
100 µM	-0.125

O=C1CCCCC1 [Cyclohexanone]
Conditions	LDH release cytotoxicity [%]
0.03162 µM	-0.709
0.1 µM	-1.76
0.3162278 µM	-1.81
1 µM	-1.07
3.16228 µM	-1.46
10 µM	-1.17
31.6228 µM	-0.292
100 µM	0.737

c1cc[n+]2c(c1)-c1cccc[n+]1CC2 [Diquat dibromide monohydrate]
Conditions	LDH release cytotoxicity [%]
0.03162 µM	-1.01
0.1 µM	0.359
0.3162278 µM	0.818
1 µM	0.472
3.16228 µM	0.215
10 µM	1.64
31.6228 µM	-0.425
100 µM	2.13

CC(c1ccc(O)cc1)(c1ccc(O)cc1)c1ccc(O)cc1 [4,4',4''-Ethane-1,1,1-triyltriphenol]
Conditions	LDH release cytotoxicity [%]
0.03162 µM	-1.89
0.1 µM	-1.24
0.3162278 µM	-1.7
1 µM	-1.8
3.16228 µM	-0.727
10 µM	-1.47
31.6228 µM	-1.43
100 µM	-0.486

Cc1ccccc1O [o-Cresol]
Conditions	LDH release cytotoxicity [%]
0.03162 µM	-1.5
0.1 µM	-1.22
0.3162278 µM	-1.45
1 µM	-2.213
3.16228 µM	-1.71
10 µM	-0.686
31.6228 µM	-0.0502
100 µM	12.99

ClC(Cl)=C(c1ccc(Cl)cc1)c1ccc(Cl)cc1 [p,p'-DDE]
Conditions	LDH release cytotoxicity [%]
0.03162 µM	-0.311
0.1 µM	-0.017
0.3162278 µM	-0.636
1 µM	-0.675
3.16228 µM	0.0542
10 µM	-0.0981
31.6228 µM	0.0466
100 µM	0.471

CC[C@H](C)[C@H]1O[C@]2(C=C[C@@H]1C)C[C@@H]1C[C@@H](C/C=C(\C)[C@@H](O[C@H]3C[C@H](OC)[C@@H](O[C@H]4C[C@H](OC)[C@@H](O)[C@H](C)O4)[C@H](C)O3)[C@@H](C)/C=C/C=C3\CO[C@@H]4[C@H](O)C(C)=C[C@@H](C(=O)O1)[C@]34O)O2.CO[C@H]1C[C@H](O[C@H]2[C@H](C)O[C@@H](O[C@@H]3/C(C)=C/C[C@@H]4C[C@@H](C[C@]5(C=C[C@H](C)[C@@H](C(C)C)O5)O4)OC(=O)[C@@H]4C=C(C)[C@@H](O)[C@H]5OC/C(=C\C=C\[C@@H]3C)[C@]54O)C[C@@H]2OC)O[C@@H](C)[C@@H]1O [Abamectin]
Conditions	LDH release cytotoxicity [%]
0.0191318 µM	-1.6
0.0605 µM	-0.607
0.191318 µM	-1.03
0.605 µM	-0.868
1.913178 µM	-1.21
6.05 µM	-1.13
19.1318 µM	12.3
60.5 µM	63.56

CC(C)(C)CC(C)(C)c1ccc(O)c(-n2nc3ccccc3n2)c1 [Octrizole]
Conditions	LDH release cytotoxicity [%]
0.03162 µM	-2.72
0.1 µM	-2.89
0.3162278 µM	-2.68
1 µM	-3.09
3.16228 µM	-3.1
10 µM	-2.49
31.6228 µM	-1.9
100 µM	-2.37

Oc1ccc(Cl)cc1Cc1ccccc1 [Clorophene]
Conditions	LDH release cytotoxicity [%]
0.031939 µM	-1.4
0.101 µM	-1.14
0.31939 µM	-1.6
1.01 µM	-1.11
3.1939004 µM	-0.749
10.1 µM	-0.231
31.939 µM	-0.479
101 µM	54

CON(C)C(=O)Nc1ccc(Cl)c(Cl)c1 [Linuron]
Conditions	LDH release cytotoxicity [%]
0.03162 µM	-1.04
0.1 µM	-1.18
0.3162278 µM	-1.18
1 µM	-0.927
3.16228 µM	-1.44
10 µM	-0.708
31.6228 µM	0.755
100 µM	0.919

CCCCOC(=O)c1ccccc1C(=O)O [Monobutyl phthalate]
Conditions	LDH release cytotoxicity [%]
0.03162 µM	-2.25
0.1 µM	-2.21
0.3162278 µM	-2.76
1 µM	-3.09
3.16228 µM	-2.68
10 µM	-2.9
31.6228 µM	-2.43
100 µM	-0.95

CCC12COCN1COC2 [7a-Ethyldihydro-1H,3H,5H-oxazolo(3,4-c)oxazole]
Conditions	LDH release cytotoxicity [%]
0.03162 µM	-1.45
0.1 µM	-1.96
0.3162278 µM	-1.68
1 µM	-1.43
3.16228 µM	-1.46
10 µM	-1.34
31.6228 µM	0.0307
100 µM	0.471
